In this data set the test system is CCRIS mutagenicity, Ames/micronucleus/aberration tests. Kind of data set: CCRIS mutagenicity studies.

Active and inactive are the calls of the source. The rule behind the calls is not given here.

As for `CN(C)c1ccc(Cc2ccc(N(C)C)cc2)cc1`, the mutagenic call by setting is: (Test System: AMES SALMONELLA TYPHIMURIUM, Strain/Indicator: TA98, Metabolic Activation: HAMSTER, LIVER, S-9, AROCLOR 1254, Method: STANDARD PLATE) “inactive; negative”; (Test System: AMES SALMONELLA TYPHIMURIUM, Strain/Indicator: TA98, Metabolic Activation: HAMSTER, LIVER, S-9, Method: STANDARD PLATE) “inactive; negative”; (Test System: AMES SALMONELLA TYPHIMURIUM, Strain/Indicator: TA98, Metabolic Activation: MOUSE, LIVER, S-9, Method: STANDARD PLATE) “inactive; negative”; (Test System: AMES SALMONELLA TYPHIMURIUM, Strain/Indicator: TA98, Metabolic Activation: NONE, Method: STANDARD PLATE) “inactive; negative”; (Test System: AMES SALMONELLA TYPHIMURIUM, Strain/Indicator: TA98, Metabolic Activation: RAT, LIVER, S-9, AROCLOR 1254, Method: STANDARD PLATE) “inactive; negative”; (Test System: AMES SALMONELLA TYPHIMURIUM, Strain/Indicator: TA98, Metabolic Activation: RAT, LIVER, S-9, Method: STANDARD PLATE) “inactive; negative”. For the same compound, the mutagenic call (Test System: AMES SALMONELLA TYPHIMURIUM, Strain/Indicator: TA100, Metabolic Activation: HAMSTER, LIVER, S-9, AROCLOR 1254, Method: STANDARD PLATE) was “inactive; negative”; the mutagenic call (Test System: AMES SALMONELLA TYPHIMURIUM, Strain/Indicator: TA100, Metabolic Activation: HAMSTER, LIVER, S-9, Method: STANDARD PLATE) is “inactive; negative”; the mutagenic call (Test System: AMES SALMONELLA TYPHIMURIUM, Strain/Indicator: TA100, Metabolic Activation: MOUSE, LIVER, S-9, Method: STANDARD PLATE) was “inactive; negative”; the mutagenic call (Test System: AMES SALMONELLA TYPHIMURIUM, Strain/Indicator: TA100, Metabolic Activation: NONE, Method: STANDARD PLATE) was “inactive; negative”; the mutagenic call (Test System: AMES SALMONELLA TYPHIMURIUM, Strain/Indicator: TA100, Metabolic Activation: RAT, LIVER, S-9, AROCLOR 1254, Method: STANDARD PLATE) is “inactive; negative”; the mutagenic call (Test System: AMES SALMONELLA TYPHIMURIUM, Strain/Indicator: TA100, Metabolic Activation: RAT, LIVER, S-9, Method: STANDARD PLATE) was “inactive; negative”. Further, the mutagenic call is, setting by setting: (Test System: AMES SALMONELLA TYPHIMURIUM, Strain/Indicator: TA1535, Metabolic Activation: HAMSTER, LIVER, S-9, AROCLOR 1254, Method: STANDARD PLATE) “inactive; negative”; (Test System: AMES SALMONELLA TYPHIMURIUM, Strain/Indicator: TA1535, Metabolic Activation: HAMSTER, LIVER, S-9, Method: STANDARD PLATE) “inactive; negative”; (Test System: AMES SALMONELLA TYPHIMURIUM, Strain/Indicator: TA1535, Metabolic Activation: MOUSE, LIVER, S-9, AROCLOR 1254, Method: STANDARD PLATE) “inactive; negative”; (Test System: AMES SALMONELLA TYPHIMURIUM, Strain/Indicator: TA1535, Metabolic Activation: MOUSE, LIVER, S-9, Method: STANDARD PLATE) “inactive; negative”; (Test System: AMES SALMONELLA TYPHIMURIUM, Strain/Indicator: TA1535, Metabolic Activation: NONE, Method: STANDARD PLATE) “inactive; negative”; (Test System: AMES SALMONELLA TYPHIMURIUM, Strain/Indicator: TA1535, Metabolic Activation: RAT, LIVER, S-9, AROCLOR 1254, Method: STANDARD PLATE) “inactive; negative”. In addition, the mutagenic call reads like this: (Test System: AMES SALMONELLA TYPHIMURIUM, Strain/Indicator: TA1535, Metabolic Activation: RAT, LIVER, S-9, Method: STANDARD PLATE) “inactive; negative”; (Test System: AMES SALMONELLA TYPHIMURIUM, Strain/Indicator: TA1537, Metabolic Activation: HAMSTER, LIVER, S-9, AROCLOR 1254, Method: STANDARD PLATE) “inactive; negative”; (Test System: AMES SALMONELLA TYPHIMURIUM, Strain/Indicator: TA1537, Metabolic Activation: HAMSTER, LIVER, S-9, Method: STANDARD PLATE) “inactive; negative”; (Test System: AMES SALMONELLA TYPHIMURIUM, Strain/Indicator: TA1537, Metabolic Activation: MOUSE, LIVER, S-9, AROCLOR 1254, Method: STANDARD PLATE) “inactive; negative”; (Test System: AMES SALMONELLA TYPHIMURIUM, Strain/Indicator: TA1537, Metabolic Activation: MOUSE, LIVER, S-9, Method: STANDARD PLATE) “inactive; negative”; (Test System: AMES SALMONELLA TYPHIMURIUM, Strain/Indicator: TA1537, Metabolic Activation: NONE, Method: STANDARD PLATE) “inactive; negative”. The mutagenic call reads like this: (Test System: AMES SALMONELLA TYPHIMURIUM, Strain/Indicator: TA1537, Metabolic Activation: RAT, LIVER, S-9, AROCLOR 1254, Method: STANDARD PLATE) “inactive; negative”; (Test System: AMES SALMONELLA TYPHIMURIUM, Strain/Indicator: TA1537, Metabolic Activation: RAT, LIVER, S-9, Method: STANDARD PLATE) “inactive; negative”; (Test System: AMES SALMONELLA TYPHIMURIUM, Strain/Indicator: TA1538, Metabolic Activation: HAMSTER, LIVER, S-9, Method: STANDARD PLATE) “inactive; negative”; (Test System: AMES SALMONELLA TYPHIMURIUM, Strain/Indicator: TA1538, Metabolic Activation: MOUSE, LIVER, S-9, AROCLOR 1254, Method: STANDARD PLATE) “inactive; negative”; (Test System: AMES SALMONELLA TYPHIMURIUM, Strain/Indicator: TA1538, Metabolic Activation: MOUSE, LIVER, S-9, Method: STANDARD PLATE) “inactive; negative”; (Test System: AMES SALMONELLA TYPHIMURIUM, Strain/Indicator: TA1538, Metabolic Activation: NONE, Method: STANDARD PLATE) “inactive; negative”. The mutagenic call (Test System: AMES SALMONELLA TYPHIMURIUM, Strain/Indicator: TA1538, Metabolic Activation: RAT, LIVER, S-9, AROCLOR 1254, Method: STANDARD PLATE) was “inactive; negative”; the mutagenic call (Test System: AMES SALMONELLA TYPHIMURIUM, Strain/Indicator: TA1538, Metabolic Activation: RAT, LIVER, S-9, Method: STANDARD PLATE) was “inactive; negative”; the mutagenic call (Test System: E. COLI, Strain/Indicator: WP2 UVRA, Metabolic Activation: HAMSTER, LIVER, S-9, AROCLOR 1254, Method: STANDARD PLATE) is “inactive; negative”; the mutagenic call (Test System: E. COLI, Strain/Indicator: WP2 UVRA, Metabolic Activation: HAMSTER, LIVER, S-9, Method: STANDARD PLATE) was “inactive; negative”; the mutagenic call (Test System: E. COLI, Strain/Indicator: WP2 UVRA, Metabolic Activation: MOUSE, LIVER, S-9, AROCLOR 1254, Method: STANDARD PLATE) was “inactive; negative”; the mutagenic call (Test System: E. COLI, Strain/Indicator: WP2 UVRA, Metabolic Activation: MOUSE, LIVER, S-9, Method: STANDARD PLATE) was “inactive; negative”. Also, the mutagenic call by setting is: (Test System: E. COLI, Strain/Indicator: WP2 UVRA, Metabolic Activation: NONE, Method: STANDARD PLATE) “inactive; negative”; (Test System: E. COLI, Strain/Indicator: WP2 UVRA, Metabolic Activation: RAT, LIVER, S-9, AROCLOR 1254, Method: STANDARD PLATE) “inactive; negative”; (Test System: E. COLI, Strain/Indicator: WP2 UVRA, Metabolic Activation: RAT, LIVER, S-9, Method: STANDARD PLATE) “inactive; negative”; (Test System: MOUSE LYMPHOMA, Strain/Indicator: L5178Y (TK+/TK-), Metabolic Activation: RAT, LIVER, S-9, AROCLOR 1254, Method: SUSPENSION/PLATE) “active; positive”.

In the case of `CC/C=C\CC/C=C/C=O`, the mutagenic call is “inactive; negative” (Test System: AMES SALMONELLA TYPHIMURIUM, Strain/Indicator: TA100, Metabolic Activation: NONE, Method: PREINCUBATION); “inactive; negative” (Test System: AMES SALMONELLA TYPHIMURIUM, Strain/Indicator: TA100, Metabolic Activation: NONE, Method: PREINCUBATION (THREEFOLD CELL DENSITY)); “inactive; negative” (Test System: AMES SALMONELLA TYPHIMURIUM, Strain/Indicator: TA100, Metabolic Activation: RAT, LIVER, S-9, AROCLOR 1254, Method: PREINCUBATION (THREEFOLD CELL DENSITY)).

For the origin of these results see PubChem BioAssay AID1259407 (Chemical Carcinogenesis Research Information System (CCRIS), 2018).
